Test results reported in patent publication US20080009418A1, “Selective Inhibitors” (Alchemia LTD., priority 2004, published 2008).

How the values were obtained:
Human δ-opioid (DOP) = biological target: T1, Human δ-opioid (DOP) (Homo sapiens, UniProt P41143); test: Radioligand binding, human δ-opioid (DOP) membranes, FlashPlate, [3H]-Bremazocine; conditions: compound at 10 μM; for A1: inhibition of radioligand binding: [3H]-Bremazocine
T1 construct: purchased Perkin Elmer Biosignal
In short: (§1)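 Cloned human receptor membranes were coated onto FlashPlate wells and incubated with radioligand and compound (added from a 0.5 mM DMSO daughter plate) for 1 hour at room temperature in the dark. Scintillation counting gave percent inhibition, with DMSO defining total and reference ligand defining non-specific binding.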

Human κ-Opioid (KOP) = biological target: T2, Human κ-Opioid (KOP) (Homo sapiens, UniProt P41145); test: Radioligand binding, human κ-opioid (KOP) membranes, filtration, [3H]-Diprenorphine; conditions: compound at 10 μM; for A2: inhibition of radioligand binding: [3H]-Diprenorphine
T2 construct: purchased Perkin Elmer Biosignal
T2 sequence (P41145 whole entry): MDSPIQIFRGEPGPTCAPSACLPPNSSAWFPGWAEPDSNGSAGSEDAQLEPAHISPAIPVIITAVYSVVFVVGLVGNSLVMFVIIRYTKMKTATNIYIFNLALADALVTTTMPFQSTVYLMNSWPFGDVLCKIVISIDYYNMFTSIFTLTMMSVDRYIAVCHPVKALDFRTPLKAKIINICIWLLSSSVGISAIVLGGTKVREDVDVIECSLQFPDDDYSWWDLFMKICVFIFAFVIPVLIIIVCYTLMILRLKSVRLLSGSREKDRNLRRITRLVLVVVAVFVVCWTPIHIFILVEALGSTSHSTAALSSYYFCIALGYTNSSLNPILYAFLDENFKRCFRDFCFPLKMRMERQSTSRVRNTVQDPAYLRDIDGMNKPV
In short: (§2)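 Membranes from cloned human receptors were incubated with compound and radioligand for 1 hour at room temperature. Bound ligand was collected on 0.3% PEI-soaked filters, washed with cold 50 mM Tris-HCl pH 7.4, and counted by scintillation. Percent inhibition was computed against DMSO totals and reference-ligand nonspecific wells.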

Human Melanocortin (MC3) = biological target: T3, Human Melanocortin (MC3) (Homo sapiens, UniProt P41968); test: Radioligand binding, human melanocortin MC3 membranes, FlashPlate, [125I]-NDP-αMSH; conditions: compound at 10 μM; for A3: inhibition of radioligand binding: [125I]-NDP-αMSH
T3 construct: purchased Perkin Elmer Biosignal
T3 sequence (P41968 whole entry): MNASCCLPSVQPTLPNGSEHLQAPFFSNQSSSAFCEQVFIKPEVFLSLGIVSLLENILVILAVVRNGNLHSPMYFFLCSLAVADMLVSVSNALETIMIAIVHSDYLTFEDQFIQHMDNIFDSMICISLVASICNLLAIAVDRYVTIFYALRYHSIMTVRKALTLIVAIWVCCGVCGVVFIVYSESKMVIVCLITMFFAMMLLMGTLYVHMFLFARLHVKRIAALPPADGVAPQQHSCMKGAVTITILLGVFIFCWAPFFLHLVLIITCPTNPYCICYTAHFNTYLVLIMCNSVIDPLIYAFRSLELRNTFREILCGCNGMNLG
In short: as §1

Human Melanocortin (MC4) = biological target: T4, Human Melanocortin (MC4) (Homo sapiens, UniProt P32245); test: Radioligand binding, human melanocortin MC4 membranes, FlashPlate, [125I]-NDP-αMSH; conditions: compound at 10 μM; for A4: inhibition of radioligand binding: [125I]-NDP-αMSH
T4 construct: purchased Perkin Elmer Biosignal
T4 sequence (P32245 whole entry): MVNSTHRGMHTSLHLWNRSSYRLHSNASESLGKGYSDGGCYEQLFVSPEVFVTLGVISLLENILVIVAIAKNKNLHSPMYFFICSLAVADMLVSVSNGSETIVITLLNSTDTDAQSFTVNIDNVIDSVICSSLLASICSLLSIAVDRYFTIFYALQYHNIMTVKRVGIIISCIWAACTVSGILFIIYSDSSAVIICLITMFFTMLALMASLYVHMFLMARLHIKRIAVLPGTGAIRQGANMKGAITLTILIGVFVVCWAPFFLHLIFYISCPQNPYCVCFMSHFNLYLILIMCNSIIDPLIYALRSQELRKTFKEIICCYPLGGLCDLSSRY
In short: as §1

Human melanocortin (MC5) = biological target: T5, Human melanocortin (MC5) (Homo sapiens, UniProt P33032); test: Radioligand binding, human melanocortin MC5 membranes, FlashPlate, [125I]-NDP-αMSH; conditions: compound at 10 μM; for A5: inhibition of radioligand binding: [125I]-NDP-αMSH
T5 construct: purchased Perkin Elmer Biosignal
T5 sequence (P33032 whole entry): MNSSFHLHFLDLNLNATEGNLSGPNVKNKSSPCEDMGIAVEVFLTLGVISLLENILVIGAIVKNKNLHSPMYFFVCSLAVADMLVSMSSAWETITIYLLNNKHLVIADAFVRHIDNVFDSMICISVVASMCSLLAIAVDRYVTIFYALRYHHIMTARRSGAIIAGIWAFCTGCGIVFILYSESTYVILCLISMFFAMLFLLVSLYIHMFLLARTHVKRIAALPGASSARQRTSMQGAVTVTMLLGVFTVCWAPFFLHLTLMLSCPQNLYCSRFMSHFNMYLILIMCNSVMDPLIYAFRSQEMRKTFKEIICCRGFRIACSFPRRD
In short: as §1

[1] = biological target: T6, Human melanin-concentrating hormone (MCH1) (Homo sapiens, UniProt Q99705); test: Radioligand binding, human melanin-concentrating hormone MCH1 membranes, FlashPlate, [125I]-S36057; conditions: compound at 10 μM
T6 construct: purchased Perkin Elmer Biosignal
T6 sequence (Q99705 whole entry): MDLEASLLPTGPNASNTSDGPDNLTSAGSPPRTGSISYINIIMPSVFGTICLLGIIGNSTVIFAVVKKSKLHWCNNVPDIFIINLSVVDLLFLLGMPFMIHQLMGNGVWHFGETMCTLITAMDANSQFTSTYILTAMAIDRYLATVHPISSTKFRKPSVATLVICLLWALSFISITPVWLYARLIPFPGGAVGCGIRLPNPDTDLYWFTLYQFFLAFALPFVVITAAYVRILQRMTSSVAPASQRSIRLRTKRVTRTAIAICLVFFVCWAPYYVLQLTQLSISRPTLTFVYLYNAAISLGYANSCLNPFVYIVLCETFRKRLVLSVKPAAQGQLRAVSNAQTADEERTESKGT
In short: as §1

Human μ-opioid (MOP) = biological target: T7, Human μ-opioid (MOP) (Homo sapiens, UniProt P35372); test: Radioligand binding, human μ-opioid (MOP) membranes, FlashPlate, [3H]-Naloxone; conditions: compound at 10 μM; for A7: inhibition of radioligand binding: [3H]-Naloxone
T7 construct: purchased Perkin Elmer Biosignal
T7 sequence (P35372 whole entry): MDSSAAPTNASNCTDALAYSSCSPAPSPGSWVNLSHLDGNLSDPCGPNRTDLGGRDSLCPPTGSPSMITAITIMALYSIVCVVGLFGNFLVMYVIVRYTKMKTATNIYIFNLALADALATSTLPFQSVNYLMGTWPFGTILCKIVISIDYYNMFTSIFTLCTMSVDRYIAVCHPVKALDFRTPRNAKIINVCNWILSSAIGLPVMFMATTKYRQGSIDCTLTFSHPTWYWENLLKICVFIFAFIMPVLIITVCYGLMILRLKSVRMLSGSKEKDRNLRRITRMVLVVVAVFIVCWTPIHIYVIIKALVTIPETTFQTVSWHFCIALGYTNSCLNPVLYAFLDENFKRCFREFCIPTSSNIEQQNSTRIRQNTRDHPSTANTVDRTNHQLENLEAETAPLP
In short: as §1

Human neurokinin (NK1) = biological target: T8, Human neurokinin (NK1) (Homo sapiens, UniProt P25103); test: Radioligand binding, human neurokinin NK1 membranes, filtration, [125I]-Substance P; conditions: compound at 10 μM; for A8: inhibition of radioligand binding: [125I]-Substance P
T8 construct: purchased Perkin Elmer Biosignal
T8 sequence (P25103 whole entry): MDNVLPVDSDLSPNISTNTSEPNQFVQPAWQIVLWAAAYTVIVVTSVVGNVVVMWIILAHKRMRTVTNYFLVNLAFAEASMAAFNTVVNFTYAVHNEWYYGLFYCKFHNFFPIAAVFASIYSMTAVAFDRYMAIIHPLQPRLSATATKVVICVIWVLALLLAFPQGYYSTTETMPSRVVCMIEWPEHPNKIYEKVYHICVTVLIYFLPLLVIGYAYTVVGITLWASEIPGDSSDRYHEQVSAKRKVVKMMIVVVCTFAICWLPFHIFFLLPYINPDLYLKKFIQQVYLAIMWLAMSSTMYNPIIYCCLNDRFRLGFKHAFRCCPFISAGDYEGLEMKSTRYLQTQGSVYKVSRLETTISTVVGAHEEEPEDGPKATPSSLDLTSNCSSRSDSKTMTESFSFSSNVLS
In short: as §2

[2] = biological target: T9, Human neuropeptide Y (NPY-Y1) (Homo sapiens, UniProt P25929); test: Radioligand binding, human neuropeptide Y NPY-Y1 membranes, FlashPlate, [125I]-PYY; conditions: compound at 10 μM; for A9: inhibition of radioligand binding: [125I]-PYY
T9 construct: purchased Perkin Elmer Biosignal
T9 sequence (P25929 1-384): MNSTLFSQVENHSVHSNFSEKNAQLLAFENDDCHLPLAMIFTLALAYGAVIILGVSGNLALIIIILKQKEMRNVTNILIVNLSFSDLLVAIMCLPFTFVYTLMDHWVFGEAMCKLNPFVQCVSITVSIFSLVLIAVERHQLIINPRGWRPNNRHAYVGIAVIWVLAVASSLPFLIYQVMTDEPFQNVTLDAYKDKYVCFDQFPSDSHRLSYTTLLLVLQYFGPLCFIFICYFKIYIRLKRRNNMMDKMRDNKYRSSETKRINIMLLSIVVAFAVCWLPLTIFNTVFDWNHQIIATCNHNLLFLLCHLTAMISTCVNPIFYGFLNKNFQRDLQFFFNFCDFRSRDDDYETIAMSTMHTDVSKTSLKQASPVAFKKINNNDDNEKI
In short: as §1

Human opioid (ORL1) = biological target: T10, Human opioid (ORL1) (Homo sapiens, UniProt P41146); test: Radioligand binding, human opioid ORL1 membranes, FlashPlate, [125I]-Nociceptin; conditions: compound at 10 μM; for A10: inhibition of radioligand binding: [125I]-Nociceptin
T10 construct: purchased Perkin Elmer Biosignal
T10 sequence (P41146 whole entry): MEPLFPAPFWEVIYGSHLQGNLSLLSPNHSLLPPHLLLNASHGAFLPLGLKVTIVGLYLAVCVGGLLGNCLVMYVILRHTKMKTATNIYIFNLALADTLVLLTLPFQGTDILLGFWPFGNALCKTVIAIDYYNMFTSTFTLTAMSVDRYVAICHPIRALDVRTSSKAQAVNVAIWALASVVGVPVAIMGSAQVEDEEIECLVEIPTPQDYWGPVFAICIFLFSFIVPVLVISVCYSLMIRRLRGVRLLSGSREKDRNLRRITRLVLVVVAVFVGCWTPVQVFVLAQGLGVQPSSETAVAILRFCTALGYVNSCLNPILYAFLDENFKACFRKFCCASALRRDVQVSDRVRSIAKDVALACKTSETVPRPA
In short: as §1

Mouse urotensin (mUR2) = biological target: T11, Mouse urotensin (mUR2) (Mus musculus, UniProt Q8VIH9); test: Radioligand binding, mouse urotensin mUR2 membranes, FlashPlate, [125I]-Urotensin II; conditions: compound at 10 μM; for A11: inhibition of radioligand binding: [125I]-Urotensin II
T11 construct: purchased Perkin Elmer Biosignal
T11 sequence (Q8VIH9 1-385): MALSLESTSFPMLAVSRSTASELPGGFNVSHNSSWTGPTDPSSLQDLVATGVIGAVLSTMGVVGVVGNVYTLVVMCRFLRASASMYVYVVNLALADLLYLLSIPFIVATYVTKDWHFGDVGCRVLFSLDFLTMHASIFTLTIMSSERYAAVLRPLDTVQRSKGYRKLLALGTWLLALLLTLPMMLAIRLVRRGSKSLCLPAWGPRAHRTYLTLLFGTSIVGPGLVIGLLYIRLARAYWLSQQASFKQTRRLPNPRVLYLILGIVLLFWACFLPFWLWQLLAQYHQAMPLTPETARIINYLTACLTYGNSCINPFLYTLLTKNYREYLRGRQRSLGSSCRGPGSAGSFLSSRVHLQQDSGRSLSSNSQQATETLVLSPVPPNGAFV
In short: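 Cloned mouse urotensin (mUR2) receptor membranes from Perkin Elmer Biosignal were immobilized in FlashPlate microplates using a proprietary coating. Each well got 19.5 μl buffer, then 0.5 μl of DMSO, reference ligand, or compound. Adding 5 μl of [125I]-Urotensin II, diluted to 5× final concentration in binding buffer, started binding. Plates were sealed with TopSeal-A and incubated 1 hour at room temperature in the dark. Wells were counted for 30 seconds each on a TopCount after a 60-second delay, and percentage inhibition was calculated.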

T1 sequence (P41143 whole entry): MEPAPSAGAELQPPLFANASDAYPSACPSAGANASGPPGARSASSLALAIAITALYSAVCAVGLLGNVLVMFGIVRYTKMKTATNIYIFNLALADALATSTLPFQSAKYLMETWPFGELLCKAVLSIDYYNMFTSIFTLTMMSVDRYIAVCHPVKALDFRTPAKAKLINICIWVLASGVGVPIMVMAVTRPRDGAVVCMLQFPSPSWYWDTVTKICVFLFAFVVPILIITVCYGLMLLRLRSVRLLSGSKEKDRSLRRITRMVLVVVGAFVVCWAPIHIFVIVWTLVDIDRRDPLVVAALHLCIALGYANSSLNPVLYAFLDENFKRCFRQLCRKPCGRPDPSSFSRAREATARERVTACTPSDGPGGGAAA

Structure (SMILES): COC[C@H]1OC(OCc2ccc(Cl)cc2)[C@H](NC(=O)CCNC(=N)N)[C@@H](OCc2ccc(-c3ccccc3)cc2)[C@@H]1O (stereo partly drawn) [compound 29]
- A1 radioligand binding inhibition (Human δ-opioid (DOP); human δ-opioid (DOP) membranes): − (“−” indicates less than 50% inhibition at 10 μM)
- A2 radioligand binding inhibition (Human κ-Opioid (KOP); human κ-opioid (KOP) membranes): − (“−” indicates less than 50% inhibition at 10 μM)
- A3 radioligand binding inhibition (Human Melanocortin (MC3); human melanocortin MC3 membranes): + (“+” indicates greater than 50% inhibition at 10 μM)
- A4 radioligand binding inhibition (Human Melanocortin (MC4); human melanocortin MC4 membranes): + (“+” indicates greater than 50% inhibition at 10 μM)
- A5 radioligand binding inhibition (Human melanocortin (MC5); human melanocortin MC5 membranes): + (“+” indicates greater than 50% inhibition at 10 μM)
- A6 radioligand binding inhibition ([1]; human MCH1 membranes): + (“+” indicates greater than 50% inhibition at 10 μM)
- A7 radioligand binding inhibition (Human μ-opioid (MOP); human μ-opioid (MOP) membranes): − (“−” indicates less than 50% inhibition at 10 μM)
- A8 radioligand binding inhibition (Human neurokinin (NK1); human neurokinin NK1 membranes): + (“+” indicates greater than 50% inhibition at 10 μM)
- A9 radioligand binding inhibition ([2]; human NPY-Y1 membranes): − (“−” indicates less than 50% inhibition at 10 μM)
- A10 radioligand binding inhibition (Human opioid (ORL1); human ORL1 membranes): − (“−” indicates less than 50% inhibition at 10 μM)
- A11 radioligand binding inhibition (Mouse urotensin (mUR2); mouse urotensin mUR2 membranes): − (“−” indicates less than 50% inhibition at 10 μM)

Structure (SMILES): CSC1OC(COCc2ccc(-c3ccccc3)cc2)C(O)C(OCc2ccccc2)C1NC(=O)CCCNC(=N)N (stereo not drawn) [compound 259]
- A1: inhibition of radioligand binding (Human δ-opioid (DOP); FlashPlate): − (“−” indicates less than 50% inhibition at 10 μM)
- A2: inhibition of radioligand binding (Human κ-Opioid (KOP); filtration): − (“−” indicates less than 50% inhibition at 10 μM)
- A3: inhibition of radioligand binding (Human Melanocortin (MC3); FlashPlate): − (“−” indicates less than 50% inhibition at 10 μM)
- A4: inhibition of radioligand binding (Human Melanocortin (MC4); FlashPlate): + (“+” indicates greater than 50% inhibition at 10 μM)
- A5: inhibition of radioligand binding (Human melanocortin (MC5); FlashPlate): − (“−” indicates less than 50% inhibition at 10 μM)
- A6: inhibition of radioligand binding ([1]; [125I]-S36057, FlashPlate): − (“−” indicates less than 50% inhibition at 10 μM)
- A7: inhibition of radioligand binding (Human μ-opioid (MOP); FlashPlate): − (“−” indicates less than 50% inhibition at 10 μM)
- A8: inhibition of radioligand binding (Human neurokinin (NK1); filtration): + (“+” indicates greater than 50% inhibition at 10 μM)
- A9: inhibition of radioligand binding ([2]; FlashPlate): − (“−” indicates less than 50% inhibition at 10 μM)
- A10: inhibition of radioligand binding (Human opioid (ORL1); FlashPlate): − (“−” indicates less than 50% inhibition at 10 μM)
- A11: inhibition of radioligand binding (Mouse urotensin (mUR2); FlashPlate): − (“−” indicates less than 50% inhibition at 10 μM)

Structure (SMILES): N=C(N)NCC(=O)NC1C(OCc2ccc(Cl)cc2)OC(COCc2ccc3ccccc3c2)C(O)C1OCc1ccc(-c2ccccc2)cc1 (stereo not drawn) [compound 423]
- A1: inhibition of radioligand binding (Human δ-opioid (DOP); human DOP membranes): − (“−” indicates less than 50% inhibition at 10 μM)
- A2: inhibition of radioligand binding (Human κ-Opioid (KOP); human KOP membranes): − (“−” indicates less than 50% inhibition at 10 μM)
- A3: inhibition of radioligand binding (Human Melanocortin (MC3); human MC3 membranes): + (“+” indicates greater than 50% inhibition at 10 μM)
- A4: inhibition of radioligand binding (Human Melanocortin (MC4); human MC4 membranes): + (“+” indicates greater than 50% inhibition at 10 μM)
- A5: inhibition of radioligand binding (Human melanocortin (MC5); human MC5 membranes): + (“+” indicates greater than 50% inhibition at 10 μM)
- A6: inhibition of radioligand binding ([1]; [125I]-S36057, human MCH1 membranes): − (“−” indicates less than 50% inhibition at 10 μM)
- A7: inhibition of radioligand binding (Human μ-opioid (MOP); human MOP membranes): − (“−” indicates less than 50% inhibition at 10 μM)
- A8: inhibition of radioligand binding (Human neurokinin (NK1); human NK1 membranes): + (“+” indicates greater than 50% inhibition at 10 μM)
- A9: inhibition of radioligand binding ([2]; human NPY-Y1 membranes): − (“−” indicates less than 50% inhibition at 10 μM)
- A10: inhibition of radioligand binding (Human opioid (ORL1); human ORL1 membranes): + (“+” indicates greater than 50% inhibition at 10 μM)
- A11: inhibition of radioligand binding (Mouse urotensin (mUR2); mouse mUR2 membranes): − (“−” indicates less than 50% inhibition at 10 μM)
